Measured values published in US9409961B2, “Cell penetrating peptides to target EIF4E” (Hoffmann-La Roche Inc., priority 2012, dated 2016).
Where two headings read alike, the source gives them in different places. Square brackets hold non-standard residues; d marks the D form. Peptide text beside a SMILES is read from it. Nle = CCCC[C@H](N)C(=O)O

What was measured:
stability in rat plasma = format: in vitro ADME; details: Hannover Wistar, pH 7.4, Conc. 10 uM, 37° C.
Procedure: (§1) The following study was conducted to assess the stability of the compound of Examples 2-4 (SEQ ID NOS: 9, 10 and 11) in Hannover Wistar rat and human plasma after 4 and 24 hours. Approximately, 2.0 mg of the compound of Examples 2-4 (SEQ ID NOS 9, 10 and 11) was weighed out and placed in a 4 mL amber vial. To this was added 1.0 mL DMSO. The vial was carefully vortexed to produce a solution of approximately 600 μM.
(§2) Hannover Wistar rat plasma and human plasma (anti-coagulant sodium EDTA) were pre-warmed to 37° C. for 30 minutes in a water bath. The pH of both plasmas was adjusted to pH7.4. 1.5 mL microcentrifuge vials were used.
(§3) The stock solution of the compound of Examples 2-4 was diluted into rat or human plasma to a final concentration of 10 μM. The two vials were gently vortexed ensuring proper mixing.
(§4) Six new vials were labeled as follows: rat T0, rat T4, rat T24, human T0, human T4, human T24. To each of these vials, 50 μL of treated plasma was added. The T4 and T24 vials were capped and placed in a 37° C. incubator for 4 and 24 hours, respectively.
(§5) To each of the two T0 vials, 50 μL of Sorensen buffer and 200 μL 1.0% acetic acid in acetonitrile were added. The T0 vials were then capped, vortexed and centrifuged at 10000×g for 10 minutes. Upon completion of centrifugation, 100 μL of the supernatant of each vial was added to a separate well in a 96-well injection block. 200 µL of 0.1% acetic acid in Milli-Q® water (Millipore) was then added to each well.
(§6) The above procedure as written with respect to the T0 vials was repeated for the two T4 vials at the 4 hour time point and the T24 vials at the 24 hour time point. With each time point a fresh T0 sample was prepared, as described above, to ensure there was no sample degradation.
(§7) All samples were analyzed by LC/MS/MS. The resulting chromatographs were processed to obtain peaks areas for each sample. The percent of compound remaining at each time point as compared with the amount present in the comparison T0 sample was calculated.

[1] = tested on: downstream target gene expression; assay: downstream target gene expression and apoptosis (FIG. 2); format: cell-based
human eIF4E = molecular target: T1, human eIF4E (Homo sapiens, UniProt P06730); assay: biochemical assay of peptide binding to human eIF4E (displacement of biotin labeled 4G2 peptide)
T1 construct: made in house
Procedure: A biochemical assay was run to test peptide binding to human eIF4E.
Human eIF4E (aa 28-217, SEQ ID NO: 87) with a C-terminal His tag (HH-eIF4E, SEQ ID NO: 88) was expressed in E. coli in inclusion bodies. The protein was solubilized with 8 M urea and purified under denaturing conditions using nickel-charged HisTrap HP columns (GE Healthcare). The protein was refolded by diluting to approximately 0.25 mg/mL with 6 M urea, 20 mM Hepes pH 7.0, 500 mM NaCl, 1 mM DTT, 1 mM EDTA, and 0.5 M arginine.HCl, and then dialyzing overnight into the same buffer without the urea. The protein was further dialyzed into 20 mM Hepes pH 6.5, 50 mM NaCl, 1 mM EDTA, and 1 mM DTT, filtered, and then concentrated using Hitrap SP sepharose FF columns (GE Healthcare). The protein was dialyzed into 20 mM Hepes pH 7.0, 500 mM NaCl, 5 mM DTT, and 10% glycerol and stored at −80° C. until use.
Test peptides (1.6 mM stock in DMSO) were diluted 3 fold in series in DMSO and solutions were diluted 4 fold in Assay Buffer (50 mM NaPi, pH 6.5, 50 mM KCl, 1 mM DTT, 0.004% NP40 and 0.5 mg/ml gammaglobulin). Six microliters per well of diluted peptide solutions and 12 microliters per well of 187.5 nM HH-eIF4E in Assay Buffer were added to 384-well polypropylene microplates (Matrix, Thermal Scientific). Twelve microliters per well of 187.5 nM biotin labeled 4G2 peptide (Ac-[…]Aha-Bio)-NH2 (SEQ ID NO: 91) 1:2 TFA) in Assay Buffer was added. The samples were incubated at room temperature for 20 minutes.
Six microliters per well of 4.8 nM Eu-streptavidin (Columbia Biosciences) and 48 nM Allophycocyanin-anti His antibody (Columbia Biosciences) in Assay Buffer (without DTT) were then added and the samples were incubated at room temperature for 30 min. Assay signals were monitored by reading emission fluorescence at 665 nm on an Envision Reader (PerkinElmer Life and Analytical Sciences). IC50 values were calculated using Condoseo software (Genedata AG, Basel, Switzerland).

[2] = stability in human plasma; format: in vitro ADME; details: pH 7.4, Conc. 10 uM, 37° C.
Procedure: as §1, §2, §3, §4, §5, §6, §7

[3] = Binding affinities expressed as IC50, HH-eIF4E, biotin labeled 4G2 peptide

T1 sequence (P06730 with tags, fused parts or gaps): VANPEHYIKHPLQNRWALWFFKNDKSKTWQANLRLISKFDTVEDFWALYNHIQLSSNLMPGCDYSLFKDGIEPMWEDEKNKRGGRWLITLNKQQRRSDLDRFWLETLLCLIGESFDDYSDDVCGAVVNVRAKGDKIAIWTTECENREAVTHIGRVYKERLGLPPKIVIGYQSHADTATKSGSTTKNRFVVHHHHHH

Row | Compound | remaining at 4 h, 10 µM (stability in rat plasma) | remaining at 24 h, 10 µM (stability in rat plasma) | apoptosis [1] | downstream target gene expression [1] | IC50 (human eIF4E; [3]) | IC50 (human eIF4E; IC50 (μM), Table 2a, cell penetrating peptides with the Y----LL-F and YWLLALFVY motifs) | remaining at 4 h, 10 µM [2] | remaining at 24 h, 10 µM [2] | IC50 (human eIF4E; Table 1, peptides which bind eIF4E but are not cell-penetrating, read-out: IC50)
1 | Ac-MANLAYWLLALFVYMWTDLRLFKKRPKP-NH2 [SEQ ID NO: 10] | 102% | 23.7% | induce apoptosis | inhibit downstream target gene expression | 6.61 µM | 1.7 µM | 99.1% | 45.2% | 
2 | Ac-MAKLKYWLLALFVYMWTDLLLFKKRPKP-NH2 [SEQ ID NO: 9] | 91.7% | 18.2% | induce apoptosis | inhibit downstream target gene expression | 4.4 µM |  | 94.9% | 76.2% | 
3 | CCCC[C@H](NC(=O)[C@H](Cc1ccccc1)NC(=O)[C@H](CCC(N)=O)NC(=O)[C@H](Cc1ccccc1)NC(=O)[C@H](C)NC(=O)[C@H](CC(C)C)NC(=O)[C@H](CC(C)C)NC(=O)[C@H](Cc1ccccc1)NC(=O)[C@H](CCC(=O)O)NC(=O)[C@H](CCCNC(=N)N)NC(=O)[C@H](CC(=O)O)NC(=O)[C@H](Cc1ccccc1)NC(=O)[C@H](CCCNC(=N)N)NC(=O)[C@H](CCCCN)NC(C)=O)C(N)=O [SEQ ID NO: 84] (Ac-KRFDREFLLAFQF[Nle]-NH2) |  |  |  |  |  |  |  |  | 4.07 µM
